# Data reported in patent US6858402B2 (The Regents of the University of California, priority 1996, dated 2005).
# “And” between values parts separate entries of the source, which are not always exact repeats. Equal values may be shown once. Numbered stars: 1 amine (or outer) side, 2 acyl side, 3 side chain; on linkers, the order of the positions; unused ones are H or OH. Bridge positions count the residues as written; N and C are the ends. Square brackets hold non-standard residues; d marks the D form. Peptide text beside a SMILES is read from it. I, II: the chains in the order shown. Actinocin(9to1) = Cc1c2oc3c(C)ccc(C(=O)[*:1])c3nc-2c(C(=O)[*:2])c(N)c1=O; NMeV = CN[C@H](C(=O)O)C(C)C; Sar = CNCC(=O)O
# B1: IL-10: cytokine (protein, UniProt P22301 19-178, looked up)
# Interleukin-10: SPGQGTQSENSCTHFPGNLPNMLRDLRDAFSRVKTFFQMKDQLDNLLLKESLLEDFKGYLGCQALSEMIQFYLEEVMPQAENQDPDIKAHVNSLGENLKTLRLRLRRCHRFLPCENKSKAVEQVKNAFNKLQEKGIYKAMSEFDIFINYIEAYMTMKIRN
# Assays:
# TRRE = test: Effect of protease inhibitors and divalent metal ions on partially-purified TRRE activity; type: biochemical, human; settings: for effect on TRRE activity: partially-purified TRRE
# Description: C75R cells and COS-1 cells were seeded into 24-well culture plates at a density of 2.5×10^5 cells/ml/well and incubated overnight (for 12 to 16 hours) in 5% CO2 at 37° C. […] (corresponding to A and C mentioned below, respectively). Simultaneously, C75R cells in 24-well plates were also incubated with 300 μl of fresh medium or buffer (corresponding to B mentioned below).
# The precipitate was pelleted by centrifugation at 10,000×g for 30 min and resuspended in PBS in approximately twice the volume of the pellet. This solution was then dialyzed at 4° C. against 10 mM Tris-HCl, 60 mM NaCl, pH 7.0. This sample was loaded on an anion-exchange chromatography, Diethylaminoethyl (DEAE)-Sephadex A-25 column (Pharmacia Biotech) (2.5×10 cm) previously equilibrated with 50 mM Tris-HCl, 60 mM NaCl, pH 8.0.
# Protease inhibitors were purchased from Sigma Chemical (St. Louis, Mo.), including phenylmethylsulfonyl fluoride (PMSF), 4-(2-aminoethyl)-benzenesulfonyl fluoride (AEBSF), 3,4-dichloroisocoumarin (3,4-DCI), N-α-tosyl-L-lysine chloromethyl ketone (TLCK), N-tosyl-L-phenylalanine chloromethyl ketone (TPCK), ethylenediaminetetraacetic acid (EDTA), ethyleneglycol bis (2-aminoethyl ether) tetraacetic acid (EGTA), 1,10-phenanthroline, and phosphoramidon. These inhibitors can be divided into the following classes: (i) serine protease inhibitors (4 mM PMSF, 0.5 mM AEBSF, and 0.1 mM 3,4-DCI); (ii) serine and cysteine protease inhibitors (0.1 mM TLCK and TPCK); (iii) chelating agents (2 mM EDTA, EGTA, and 1,10-phenanthroline); (iv) a metallo-endoprotease inhibitor (0.5 mM phosphoramidon); and (v) divalent heavy metal ions (2 mM CaCl2, MgCl2, MnCl2, ZnCl2, CoCl2, CuCl2, and FeCl2). […] The percent activity remaining (% control) was expressed relative to the control.
# The percent activity remaining (% control) was calculated as above.
# THP-1 cells [1] = test: Effect of inhibitors co-incubated with PMA on TRRE production; type: cell-based, human
# Text: Several inhibitors including cycloheximide (Chx) (an inhibitor of protein synthesis), actinomycin D (ActD) (an inhibitor of RNA synthesis), N-ethylmaleimide (NEM) (an inhibitor of membrane internalization and movement), cytochalasin B (CytB) (an inhibitor of microfilament formation), and colchicine (Col) (an inhibitor of microtubule formation) were purchased from Sigma Chemical (St. Louis, Mo.). THP-1 cells at a density of 1×10^6 cells/ml in RPMI-1640/1% FCS with 10^−6 M PMA was co-stimulated along with 10 μg/ml Chx, 1 μg/ml ActD, 1 mM NEM, 0.1 mM CytB, or 0.1 mM Col for 30 min at 37° C. in 5% CO2. Following centrifugation at 400×g for 5 min, the supernatant was discarded and the cells were washed once with serum-free medium. The cells were incubated for an additional 2 hours at the same density (1×10^6 cells/ml) in PMA-free RPMI-1640 with corresponding inhibitors.
# THP-1 cells [2] = test: as above; type: cell-based, human; settings: inhibitor 0.01 mM with 10^−6 M PMA
# [3] = system: Lipopolysaccharide-induced shock; settings: Yamamoto et al. (1997); cited from earlier work
# THP-1 cells [4] = test: Induction of TRRE by cytokines and hormones; type: cell-based, human; settings: 2 hours stimulation, insulin 10^−7 M, IL-1β 10 ng/ml, IL-6 100 ng/ml; for induction of TRRE activity: IL-10 100 ng/ml, epinephrine 10^−6 M
# sTNF-R = settings: Seitz et al. (1997); cited from earlier work
# [5] = biological target: human soluble p75 TNF-R (human) (UniProt P20333); test: soluble p75 TNF-R-Affigel 10 affinity chromatography of TRRE after reaction with C75R cells; TRRE activity assay of fractions
# [6] = biological target: human p75 TNF-R (membrane-bound, on C75R transfected COS-1 cells or on THP-1 cells) (human) (UniProt P20333); test: cell-based or functional assay
# [7] = biological target: TNF-R on L929 cells (murine); test: cell-based or functional assay
# [8] = biological target: human p55 TNF-R (on THP-1 cells) (human) (UniProt P19438); test: cell-based or functional assay
# [9] = 2 mM, preincubated 37° C. 30 min (Table 5)
# [10] = 0.1 mM, preincubated 37° C. 30 min (Table 5)
# [11] = 0.5 mM, preincubated 37° C. 30 min (Table 5)
# [12] = inhibitor 0.1 mM with 10^−6 M PMA
# [13] = inhibitor 1 mM with 10^−6 M PMA
# human soluble p75 TNF-R (human), sequence (P20333 23-257): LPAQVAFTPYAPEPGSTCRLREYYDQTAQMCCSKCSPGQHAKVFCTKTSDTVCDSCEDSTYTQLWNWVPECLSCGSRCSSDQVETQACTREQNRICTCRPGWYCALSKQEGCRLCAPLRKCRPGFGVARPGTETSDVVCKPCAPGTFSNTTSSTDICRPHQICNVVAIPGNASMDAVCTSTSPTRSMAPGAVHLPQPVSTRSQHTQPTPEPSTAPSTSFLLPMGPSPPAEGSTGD
# human p55 TNF-R (on THP-1 cells) (human), sequence (P19438 30-455): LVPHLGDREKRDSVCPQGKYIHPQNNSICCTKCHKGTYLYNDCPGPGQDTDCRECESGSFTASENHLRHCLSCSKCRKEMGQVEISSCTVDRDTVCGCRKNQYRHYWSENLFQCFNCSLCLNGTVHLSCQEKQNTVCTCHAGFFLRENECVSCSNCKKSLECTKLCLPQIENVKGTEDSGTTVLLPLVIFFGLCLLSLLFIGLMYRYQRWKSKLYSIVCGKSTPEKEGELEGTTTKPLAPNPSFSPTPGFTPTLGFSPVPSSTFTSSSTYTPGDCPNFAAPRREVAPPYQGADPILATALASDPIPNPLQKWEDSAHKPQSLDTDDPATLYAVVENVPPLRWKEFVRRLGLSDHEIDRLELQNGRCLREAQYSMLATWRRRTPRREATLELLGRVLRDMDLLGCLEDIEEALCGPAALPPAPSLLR
# human p75 TNF-R (membrane-bound, on C75R transfected COS-1 cells or on THP-1 cells) (human), sequence (P20333 23-461 C75R limits assumed): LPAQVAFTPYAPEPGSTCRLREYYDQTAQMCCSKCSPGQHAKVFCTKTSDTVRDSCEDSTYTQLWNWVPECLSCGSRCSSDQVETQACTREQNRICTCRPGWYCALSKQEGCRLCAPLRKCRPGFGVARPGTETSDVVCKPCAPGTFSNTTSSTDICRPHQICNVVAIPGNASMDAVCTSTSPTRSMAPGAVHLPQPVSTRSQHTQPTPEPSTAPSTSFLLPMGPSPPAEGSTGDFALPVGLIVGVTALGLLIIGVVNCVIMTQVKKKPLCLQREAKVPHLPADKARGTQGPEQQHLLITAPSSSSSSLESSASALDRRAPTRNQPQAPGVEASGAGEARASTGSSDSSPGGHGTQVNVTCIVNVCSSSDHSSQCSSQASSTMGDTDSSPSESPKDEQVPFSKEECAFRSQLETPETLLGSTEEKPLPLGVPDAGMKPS
molecule,measurement,setting,value
"c1cnc2c(c1)ccc1cccnc12 [1,10-Phenanthroline, 1,10-phenanthroline]",% Control of TRRE activity,TRRE; 2 mM (Table 6),47 ± 9%
same,% Control of TRRE activity,TRRE; [9],41 ± 6%
same,% Control of TRRE activity,"TRRE; 2 mM, preincubated 37° C. 30 min (Table 5), listed as 1,10-phenanthroline",41%
"O=c1oc(Cl)c(Cl)c2ccccc12 [3,4-DCI, 3,4-dichloroisocoumarin]",% Control of TRRE activity,TRRE; [10],108 ± 4%
same,effect on TRRE activity,TRRE,no effect
"NCCc1ccc(S(=O)(=O)F)cc1 [AEBSF, 4-(2-aminoethyl)-benzenesulfonyl fluoride]",% Control of TRRE activity,TRRE; [11],92 ± 8%
same,effect on TRRE activity,TRRE,no effect
"Cc1c2oc3c(C)ccc(C(=O)N[C@@H]4C(=O)N[C@H](C(C)C)C(=O)N5CCC[C@H]5C(=O)N(C)CC(=O)N(C)[C@@H](C(C)C)C(=O)O[C@@H]4C)c3nc-2c(C(=O)N[C@@H]2C(=O)N[C@H](C(C)C)C(=O)N3CCC[C@H]3C(=O)N(C)CC(=O)N(C)[C@@H](C(C)C)C(=O)O[C@@H]2C)c(N)c1=O [Actinomycin D, actinomycin D] (I: T[dV]P[Sar][NMeV] / II: T[dV]P[Sar][NMeV]; ester I:1-I:C, II:1-II:C; linker I:N-II:N via Actinocin(9to1))",% of TRRE production,THP-1 cells [1]; inhibitor 1 μg/ml with 10^−6 M PMA,104%
same,% of TRRE production,"THP-1 cells [1]; inhibitor 1 μg/ml with 10^−6 M PMA, listed as ActD",97%
"[Ca+2].[Cl-].[Cl-] [Ca^2+, CaCl2]",% Control of TRRE activity,TRRE; [9],151% and 151 ± 23%
same,% Control of TRRE activity,TRRE; 4 mM (Table 6),189±4%
"[Cl-].[Cl-].[Co+2] [Co^2+, CoCl2]",% Control of TRRE activity,TRRE; [9],123% and 123 ± 15%
"COc1cc2c(c(OC)c1OC)-c1ccc(OC)c(=O)cc1[C@@H](NC(C)=O)CC2 [Colchicine, colchicine]",% of TRRE production,THP-1 cells [1]; [12],111%
same,% of TRRE production,THP-1 cells [1]; [13],125%
same,% of TRRE production,THP-1 cells [2],95%
"[Cl][Cu][Cl] [Cu^2+, CuCl2]",% Control of TRRE activity,TRRE; [9],47% and 47 ± 21%
"C[C@@H]1C[C@@H]([C@H](O)CC2CC(=O)NC(=O)C2)C(=O)[C@@H](C)C1 [Cycloheximide, cycloheximide]",% of TRRE production,THP-1 cells [1]; inhibitor 10 μg/ml with 10^−6 M PMA,97%
same,% of TRRE production,"THP-1 cells [1]; inhibitor 10 μg/ml with 10^−6 M PMA, listed as Chx",104%
"C=C1[C@@H](C)[C@H]2[C@H](Cc3ccccc3)NC(=O)[C@]23OC(=O)/C=C/[C@H](O)CCC[C@@H](C)C/C=C/[C@H]3[C@@H]1O [Cytochalasin B, cytochalasin B]",% of TRRE production,THP-1 cells [1]; [12],91%
same,% of TRRE production,THP-1 cells [2],103%
"O=C(O)CN(CCN(CC(=O)O)CC(=O)O)CC(=O)O [EDTA, ethylenediaminetetraacetic acid]",% Control of TRRE activity,TRRE; [9],67% and 67 ± 7%
"O=C(O)CN(CCOCCOCCN(CC(=O)O)CC(=O)O)CC(=O)O [EGTA, ethyleneglycol bis (2-aminoethyl ether) tetraacetic acid]",% Control of TRRE activity,TRRE; [9],73% and 73 ± 4%
O=C(C(=O)N1CCn2nc(-c3ccc(F)cc3)c(-c3ccncc3)c2N1)c1ccccc1.O=S(=O)(O)O [FR167653],Lipopolysaccharide-induced shock,[3],ameliorated
"[Cl][Fe][Cl] [Fe^2+, FeCl2]",% Control of TRRE activity,TRRE; [9],98 ± 8%
"[Cl-].[Cl-].[Mg+2] [Mg^2+, MgCl2]",% Control of TRRE activity,TRRE; [9],127% and 127 ± 9%
"[Cl][Mn][Cl] [Mn^2+, MnCl2]",% Control of TRRE activity,TRRE; [9],157% and 157 ± 33%
"CCN1C(=O)C=CC1=O [N-ethyl-maleimide, N-ethylmaleimide]",% of TRRE production,THP-1 cells [1]; [13],17%
"O=S(=O)(F)Cc1ccccc1 [PMSF, phenylmethylsulfonyl fluoride]",% Control of TRRE activity,"TRRE; 4 mM, preincubated 37° C. 30 min (Table 5)",116 ± 4%
same,effect on TRRE activity,TRRE,no effect
"CC(C)C[C@H](NP(=O)(O)O[C@@H]1O[C@@H](C)[C@H](O)[C@@H](O)[C@H]1O)C(=O)N[C@@H](Cc1c[nH]c2ccccc12)C(=O)O [Phosphoramidon, phosphoramidon]",% Control of TRRE activity,TRRE; [11],84 ± 13%
"Cc1ccc(S(=O)(=O)N[C@@H](CCCCN)C(=O)CCl)cc1 [TLCK, N-α-tosyl-L-lysine chloromethyl ketone]",% Control of TRRE activity,TRRE; [10],108 ± 5%
same,effect on TRRE activity,TRRE,no effect
"[Cl-].[Cl-].[Zn+2] [Zn^2+, ZnCl2]",% Control of TRRE activity,TRRE; 0.1 mM (Table 6),122±6%
same,% Control of TRRE activity,TRRE; [9],23% and 23 ± 15%
CNC[C@H](O)c1ccc(O)c(O)c1 [epinephrine],induction of TRRE activity,THP-1 cells [4],induced TRRE activity
CCCCC[C@H](O)/C=C/[C@H]1[C@H](O)CC(=O)[C@@H]1C/C=C\CCCC(=O)O [prostaglandin E2],sTNF-R shedding,sTNF-R,not affected
IL-1β: cytokine,induction of TRRE activity,THP-1 cells [4],no apparent TRRE activity
same,induction of sTNF-R,THP-1 cells [4],induced sTNF-R
IL-6: cytokine,induction of TRRE activity,THP-1 cells [4],no apparent TRRE activity
same,induction of sTNF-R,THP-1 cells [4],induced sTNF-R
N-tosyl-L-phenylalanine chloromethyl ketone [TPCK],% Control of TRRE activity,TRRE; [10],107 ± 7%
same,effect on TRRE activity,TRRE,no effect
"TNF receptor releasing enzyme (TRRE), from PMA-stimulated THP-1 cells",percent of recovered TRRE activity in the elution of the soluble p75 TNF-R affinity column,[5],25%
same,percent of recovered TRRE activity in the flow through of the soluble p75 TNF-R affinity column (not retained),[5],53%
same,percent of recovered TRRE activity in the wash of the soluble p75 TNF-R affinity column (not retained),[5],22%
same,"cell surface expression on THP-1 cells after 5,000 U/ml TRRE (flow cytometry, percent control of MFI)",[6],49 % control
same,"soluble p75 TNF-R released from THP-1 cells (ELISA) after 1,000 U/ml TRRE for 30 min",[6],1660 pg/mL
same,"ratio of surviving L929 cells with 4 ng/ml TNF to cells without TNF, pretreated with 100 U/ml TRRE (control without TRRE: 24%)",[7],30%
same,"ratio of surviving L929 cells with 4 ng/ml TNF to cells without TNF, pretreated with 500 U/ml TRRE (control without TRRE: 24%)",[7],38%
same,"ratio of surviving L929 cells with 4 ng/ml TNF to cells without TNF, pretreated with 2,500 U/ml TRRE (control without TRRE: 24%)",[7],74%
same,"cell surface expression on THP-1 cells after 5,000 U/ml TRRE (flow cytometry, percent control of MFI)",[8],8 % control
same,"soluble p55 TNF-R released from THP-1 cells (ELISA) after 1,000 U/ml TRRE for 30 min",[8],2380 pg/mL
gold sodium thiomalate,sTNF-R shedding,sTNF-R,not affected
insulin: hormone,induction of TRRE activity,THP-1 cells [4],no apparent TRRE activity
same,induction of sTNF-R,THP-1 cells [4],induced sTNF-R
B1,induction of TRRE activity,THP-1 cells [4],induced TRRE activity
